In US20250235453A1, “TRIAZOLOPYRIDAZINE COMPOUNDS USEFUL AS RAC1 INHIBITORS” (Revere Pharmaceuticals, priority 2021, published 2025) one finds IC50 data, which are given here for 59 molecules.

For orientation: pIC50 means the negative decadic logarithm of the IC50, by convention in mol/L.

pIC50: −log10 of the molar value.

The target of the assay is T1, Rac1 (Homo sapiens, UniProt P63000).
T1 construct: His (N)
In words: Rac Activation AlphaScreen Assay (Rac1 AS). Conditions: Rac1 AS assay, dose leading to 50% disruption of complex; read-out: IC50. It is filed as biochemical. The protocol: The IC50 values reported in Tables 1-6 were obtained from the Rae Activation AlphaScreen Assay (Rac1 AS) assay described in subsection 2 under the section entitled “In Vitro Assays”. “†” represents an IC50 of greater than 100 uM; “††” represents an IC50 of greater than 10 uM and less than 50 uM; and “†††” represents an IC50 of less than 10 uM. “POC” means percent of control. […] Lower POC values reflect greater inhibition. “NT” means not tested.
2. Rac Activation AlphaScreen Assay (Rac1 AS)
AlphaScreen® assays were performed in 96-well microplates in a final reaction volume of 60 μL. Recombinant His-Rac1, recombinant GST-PBD (PAK Binding Domain), donor and acceptor beads (PerkinElmer), and inhibitors were incubated in exchange buffer (20 mM Tris pH 7.5, 50 mM NaCl, 1 mM MgCl2, 1 mM EDTA, 500 nM GTPyS (guanosine 5′-[Y-thio]triphosphate)) at 37° C. Readings were performed on a Tecan M1000 pro microplate reader after 1 hour. Data was analyzed using the GraphPad Prism software (GraphPad Software, Inc.), and IC50 (dose leading to 50% disruption of complex) was calculated from the dose-response curves.
(In general: In Alpha technology, singlet oxygen from a donor bead excites a nearby acceptor bead.)
`O=C(Cc1ccc(Cl)cc1)Nc1ccc(-c2ccc3nnc(-c4ccncc4)n3n2)cc1` [Compound 7]: the negative-log IC50 (pIC50) is < 4.00.

`O=C(Cc1cccc(F)c1)Nc1ccc(-c2ccc3nnc(-c4ccncc4)n3n2)cc1` [Compound 8]: the pIC50 is < 4.00.

On to `Cc1ccc(CC(=O)Nc2ccc(-c3ccc4nnc(-c5ccncc5)n4n3)cc2)cc1C` [Compound 9], for which the pIC50 is 4.30 to 5.00.

As for `O=C(Cc1cccc(Cl)c1)Nc1ccc(-c2ccc3nnc(-c4ccncc4)n3n2)cc1` [Compound 10], the pIC50 was > 5.00.

For `Cc1cc(C)cc(CC(=O)Nc2ccc(-c3ccc4nnc(-c5ccncc5)n4n3)cc2)c1` [Compound 11], the pIC50 was 4.30 to 5.00.

Take `O=C(Cc1ccc(F)cc1)Nc1ccc(-c2ccc3nnc(-c4ccncc4)n3n2)cc1` [Compound 12]: the pIC50 was > 5.00.

Regarding `Cc1ccccc1CC(=O)Nc1ccc(-c2ccc3nnc(-c4ccncc4)n3n2)cc1` [Compound 13], the negative logarithm of the IC50 (pIC50) was 4.30 to 5.00.

For the molecule `O=C(Cc1cccc2ccccc12)Nc1ccc(-c2ccc3nnc(-c4ccncc4)n3n2)cc1` [Compound 15], the pIC50 is > 5.00.

With `O=C(Cc1ccc2ccccc2c1)Nc1ccc(-c2ccc3nnc(-c4ccncc4)n3n2)cc1` [Compound 16], the pIC50 was 4.30 to 5.00.

Take `O=C(Cc1cccc([N+](=O)[O-])c1)Nc1ccc(-c2ccc3nnc(-c4ccncc4)n3n2)cc1` [Compound 17]: the pIC50 was 4.30 to 5.00.

Regarding `O=C(Cc1cccs1)Nc1ccc(-c2ccc3nnc(-c4cccnc4)n3n2)cc1` [Compound 18], the negative logarithm of the IC50 (pIC50) was 4.30 to 5.00.

On to `O=C(Cc1cccc2ccccc12)Nc1ccc(-c2ccc3nnc(-c4ccccn4)n3n2)cc1` [Compound 19], for which the pIC50 was > 5.00.

With `O=C(Cc1ccc2ccccc2n1)Nc1ccc(-c2ccc3nnc(-c4ccccn4)n3n2)cc1` [Compound 20], the pIC50 is < 4.00.

Turning to `O=C(Cc1ccc(Cl)nc1)Nc1ccc(-c2ccc3nnc(-c4ccccn4)n3n2)cc1` [Compound 21], the pIC50 is 4.30 to 5.00.

As for `O=C(Cc1cccnc1Cl)Nc1ccc(-c2ccc3nnc(-c4ccccn4)n3n2)cc1` [Compound 22], the pIC50 is > 5.00.

In the case of `O=C(Cc1cccc(F)c1)Nc1ccc(-c2ccc3nnc(-c4cccs4)n3n2)cc1` [Compound 24], the pIC50 is > 5.00.

With `COc1cccc(CC(=O)Nc2ccc(-c3ccc4nnc(-c5cccs5)n4n3)cc2)c1` [Compound 25], the negative logarithm of the IC50 (pIC50) is 4.30 to 5.00.

As to `O=C(Cc1ccc(F)cc1)Nc1ccc(-c2ccc3nnc(-c4cccs4)n3n2)cc1` [Compound 26], the pIC50 is > 5.00.

On to `O=C(Cc1ccc(F)cc1F)Nc1ccc(-c2ccc3nnc(-c4cccs4)n3n2)cc1` [Compound 27], for which the pIC50 is > 5.00.

With `O=C(Cc1ccccc1Cl)Nc1ccc(-c2ccc3nnc(-c4cccs4)n3n2)cc1` [Compound 28], the negative-log IC50 (pIC50) is > 5.00.

On to `O=C(Cc1ccccc1)Nc1ccc(-c2ccc3nnc(-c4ccccn4)n3n2)cc1` [Compound 30], for which the pIC50 is > 5.00.

In the case of `Cc1nnc2ccc(-c3ccc(NC(=O)Cc4ccco4)cc3)nn12` [Compound 31], the pIC50 was < 4.00.

On to `O=S(=O)(Cc1ccccc1)Nc1ccc(-c2ccc3nnc(-c4ccccn4)n3n2)cc1` [Compound 33], for which the pIC50 was > 5.00.

On to `O=C(Cc1ccccc1Cl)Nc1cccc(-c2ccc3nnc(-c4cccnc4)n3n2)c1` [Compound 44], for which the pIC50 is > 5.00.

As to `O=C(Cc1c[nH]c2ccccc12)Nc1cccc(-c2ccc3nnc(-c4cccnc4)n3n2)c1` [Compound 45], the negative logarithm of the IC50 (pIC50) is > 5.00.

As to `COc1cccc(CC(=O)Nc2cccc(-c3ccc4nnc(-c5cccnc5)n4n3)c2)c1` [Compound 46], the pIC50 was > 5.00.

`O=C(Nc1cccc(-c2ccc3nnc(-c4cccnc4)n3n2)c1)c1ccc2ccccc2c1` [Compound 49]: the pIC50 was 4.30 to 5.00.

As for `O=C(Cc1cccs1)Nc1cccc(-c2ccc3nnc(-c4cccnc4)n3n2)c1` [Compound 51], the pIC50 was > 5.00.

As to `O=C(Cc1ccc(Cl)cc1)Nc1cccc(-c2ccc3nnc(-c4cccnc4)n3n2)c1` [Compound 52], the pIC50 was > 5.00.

As for `O=S(=O)(Cc1ccc(F)cc1F)Nc1cccc(-c2ccc3nnc(-c4cccnc4)n3n2)c1` [Compound 56], the pIC50 was > 5.00.

Take `O=S(=O)(Cc1ccc2ccccc2c1)Nc1cccc(-c2ccc3nnc(-c4cccnc4)n3n2)c1` [Compound 57]: the pIC50 was > 5.00.

Take `CCc1ccc(CS(=O)(=O)Nc2cccc(-c3ccc4nnc(-c5cccnc5)n4n3)c2)s1` [Compound 59]: the pIC50 is > 5.00.

Turning to `Cc1ccc(CS(=O)(=O)Nc2cccc(-c3ccc4nnc(-c5cccnc5)n4n3)c2)s1` [Compound 60], the pIC50 is > 5.00.

Take `O=S(=O)(Cc1ccccc1F)Nc1cccc(-c2ccc3nnc(-c4cccnc4)n3n2)c1` [Compound 62]: the negative logarithm of the IC50 (pIC50) was > 5.00.

Consider `O=S(=O)(Cc1cccc(F)c1)Nc1cccc(-c2ccc3nnc(-c4cccnc4)n3n2)c1` [Compound 63], for which the pIC50 was > 5.00.

On to `Cn1cc(CC(=O)Nc2cccc(-c3ccc4nnc(-c5cccnc5)n4n3)c2)c2ccccc21` [Compound 74], for which the pIC50 was > 5.00.

For `COc1cccc(C(=O)Nc2cccc(-c3ccc4nnc(-c5ccc(C)o5)n4n3)c2)c1` [Compound 79], the pIC50 was > 5.00.

As for `Cc1ccc(-c2nnc3ccc(-c4cccc(NC(=O)c5ccc(F)cc5)c4)nn23)o1` [Compound 80, 4-fluoro-N-(3-(3-(5-methylfuran-2-yl)-[1,2,4]triazolo[4,3-b]pyridazin-6-yl)phenyl)benzamide], the pIC50 is > 5.00.

As for `Cc1ccc(-c2nnc3ccc(-c4cccc(NC(=O)c5ccc(F)c(Cl)c5)c4)nn23)o1` [Compound 81, 3-chloro-4-fluoro-N-(3-(3-(5-methylfuran-2-yl)-[1,2,4]triazolo[4,3-b]pyridazin-6-yl)phenyl)benzamide], the pIC50 is > 5.00.

Take `Cc1ccc(-c2nnc3ccc(-c4cccc(NC(=O)c5cccc(Cl)c5)c4)nn23)o1` [Compound 82, 3-chloro-N-(3-(3-(5-methylfuran-2-yl)-[1,2,4]triazolo[4,3-b]pyridazin-6-yl)phenyl)benzamide]: the pIC50 is > 5.00.

As to `Cc1ccc(-c2nnc3ccc(-c4cccc(NC(=O)c5cccc(Br)c5)c4)nn23)o1` [Compound 83], the pIC50 is > 5.00.

As to `Cc1ccc(-c2nnc3ccc(-c4cccc(NC(=O)c5cccc(F)c5)c4)nn23)o1` [Compound 84], the pIC50 was > 5.00.

`Cc1ccc(-c2nnc3ccc(-c4cccc(NC(=O)c5ccc(F)c(F)c5)c4)nn23)o1` [Compound 85]: the pIC50 was > 5.00.

Take `CSc1cc(C(=O)Nc2cccc(-c3ccc4nnc(-c5ccc(C)o5)n4n3)c2)ccc1F` [Compound 86]: the pIC50 was > 5.00.

Regarding `CCSc1cccc(C(=O)Nc2cccc(-c3ccc4nnc(-c5ccc(C)o5)n4n3)c2)c1` [Compound 87], the pIC50 is > 5.00.

Consider `Cc1ccc(-c2nnc3ccc(-c4cccc(NC(=O)c5cccc(SC(C)C)c5)c4)nn23)o1` [Compound 88, 3-(isopropylthio)-N-(3-(3-(5-methylfuran-2-yl)-[1,2,4]triazolo[4,3-b]pyridazin-6-yl)phenyl)benzamide], for which the pIC50 is > 5.00.

For `Cc1cccc(C(=O)Nc2cccc(-c3ccc4nnc(-c5ccc(C)o5)n4n3)c2)c1` [Compound 89], the negative logarithm of the IC50 (pIC50) was > 5.00.

In the case of `CCc1cccc(C(=O)Nc2cccc(-c3ccc4nnc(-c5ccc(C)o5)n4n3)c2)c1` [Compound 90, 3-ethyl-N-(3-(3-(5-methylfuran-2-yl)-[1,2,4]triazolo[4,3-b]pyridazin-6-yl)phenyl)benzamide], the pIC50 was > 5.00.

For the molecule `Cc1ccc(-c2nnc3ccc(-c4cccc(NC(=O)c5ccc(F)c(SC(C)C)c5)c4)nn23)o1` [Compound 91], the negative-log IC50 (pIC50) was > 5.00.

For the molecule `Cc1ccc(-c2nnc3ccc(-c4cccc(NC(=O)c5ccc(F)c(C)c5)c4)nn23)o1` [Compound 92], the pIC50 was > 5.00.

As to `CCc1cc(C(=O)Nc2cccc(-c3ccc4nnc(-c5ccc(C)o5)n4n3)c2)ccc1F` [Compound 93, 3-ethyl-4-fluoro-N-(3-(3-(5-methylfuran-2-yl)-[1,2,4]triazolo[4,3-b]pyridazin-6-yl)phenyl)benzamide], the pIC50 is > 5.00.

With `Cc1ccc(-c2nnc3ccc(-c4cccc(NC(=O)c5ccc(F)c(Br)c5)c4)nn23)o1` [Compound 94], the pIC50 is > 5.00.

For the molecule `COc1cccc(C(=O)Nc2cccc(-c3ccc4nnc(-c5cncs5)n4n3)c2)c1` [Compound 98], the pIC50 was > 5.00.

On to `O=C(Nc1cccc(-c2ccc3nnc(-c4cncs4)n3n2)c1)c1ccc(F)cc1` [Compound 99, 4-fluoro-N-(3-(3-(thiazol-5-yl)-[1,2,4]triazolo[4,3-b]pyridazin-6-yl)phenyl)benzamide], for which the pIC50 was > 5.00.

Turning to `Cc1ccc(-c2nnc3ccc(-c4cccc(NS(=O)(=O)Cc5ccc(F)cc5F)c4)nn23)o1` [Compound 106], the pIC50 was > 5.00.

Regarding `COc1ccc(CS(=O)(=O)Nc2cccc(-c3ccc4nnc(-c5cccnc5)n4n3)c2)cc1` [Compound 107], the pIC50 was > 5.00.

With `COc1ccc(CS(=O)(=O)Nc2cccc(-c3ccc4nnc(-c5cccnc5)n4n3)c2)c(OC)c1` [Compound 108], the pIC50 is > 5.00.

As to `Cc1ccc(-c2nnc3ccc(-c4cccc(NC(=O)c5cnco5)c4)nn23)o1` [Compound 109], the pIC50 was > 5.00.

With `Cc1ccc(-c2nnc3ccc(-c4cccc(NC(=O)c5ccc(F)c(CCC(C)C)c5)c4)nn23)o1` [Compound 110], the pIC50 was > 5.00.
